According to US9403806B1, “Cognition enhancing compounds and compositions, methods of making, and methods of treating” (NeuroSolis, Inc., priority 2010, dated 2016):
Where two headings read alike, the source gives them in different places.

Experiments:
[1] = test system: CD-I mice; assay: Apomorphine induced climbing model of psychosis; type: in vivo; details: APO 2 mg/kg alone
Protocol: As described in Costall et. al. European Journal of Pharmacology 1978, 50, 39. individual CD-I mice, 1-2 months old, were placed in a cylindrical wire mesh cage (13.2 cm high×13.2 cm diameter) constructed of steel wire 1 mm thick spaced at 1.2 cm^2. Cylinders were placed in a standard OptiMICE mouse cage (29×32×9×29 cm and 14 cm high) with adequate wood chip bedding provided. Observations of climbing (defined as 3 or more paws of the ground) were carried out every 5 minutes at a duration of 1 minute for […]. Animals were injected subcutaneously under isoflurane anesthesia with test compounds, reference compounds, which included clozapine, haloperidol, olanzapine and xanomeline, or PBS as a control. This was followed 5 minutes later by 2 mg/kg apomorphine hydrochloride. All drugs were dissolved in PBS or a mixture of (by volume) 96% PBS and 4% hydroxypropyl-beta-cyclodextrin, and dosed at a rate of 5 ml per kilogram of body weight. Following injections, animals were replaced in the mesh cages and observed for climbing (defined as 3 or more paws off the ground) every 5 minutes for 1 minute for 60 minutes after dosing.

[2] = test system: pooled male human liver microsomes; assay: Metabolism in human liver microsomes, Example 45; type: in vitro ADME
Protocol: Aliquots were removed every 2 hours, and 1% formic acid was added to halt the reaction. Samples were centrifuged, filtered through 0.2 micron spinfilter, and the amount of each compound in the supernatants was quantitated using LC/MS/MS as follows. The ultra-filtrates were subjected to reverse-phase liquid chromatography using a 150×2.1 mm Agilent C8-reverse phase column on a Shimadzu Prominence LC, eluting the compound with a gradient of 2%-50% acetonitrile+0.1% formic acid over 5 minutes. The concentration of the compound in the column effluent was measured using an Applied Biosystems API-3200 triple quadrupole mass spectrometer equipped with a Turbo V source (electrospray sample injection) system. The counts of the characteristic parent ions of the protonated compound and product ions were converted to concentration by comparison with a standard calibration curve. The parent/daughter ion pairs that were monitored for each compound were: 166.0/82.0 (105), 166.0/82.0 (106b), 166.0/82.0 (106a), 169.0/83.0 (136), 168.2/83.0 (121), 168.1/83.0 (122a), 168.1/83.0 (122b), 170.2/83.0 (134), 168.2/84.1 (135), 168.1/84.1 (137) and 169.2/82.1 (138).

[3] = Blood and brain concentrations (rats), tail vein injection; type: in vivo, Long-Evans Hooded rats; details: male, Long-Evans Hooded, rat, 3 mg/kg; for Kp at 1 h: brain and plasma, intravenous, Table 114, read-out: Brain/Plasma Ratio; for concentration at 1 h: in vivo, 3 mg/kg tail vein injection
Protocol: Long-Evans Hooded rats (Charles River: male, 230-300 g) were dosed with solutions of test compounds in PBS by tail vein injection. The dose for all compounds was 3 mg/kg. At one hour, the animals were anesthetized with isoflurane, and then euthanized by decapitation. Trunk blood was collected into a 1.5 mL microcentrifuge tube containing 15 U Heparin, and the plasma recovered after centrifugation. Brains were dissected, weighed, immediately chilled to 4° C., and homogenized using a PowerGen 125 homogenizer in five volumes of ice-cold 2% formic acid. Proteins were precipitated from plasma and brain homogenate with nine and five volumes respectively of ice-cold 2% formic acid and clarified by centrifugation. The supernatant was ultra-filtered by centrifugation through a 3K MWCO spin column (Pall Life Sciences), following the manufacturer's instructions. The concentration of compound in the ultra-filtrate was subjected to reverse-phase liquid chromatography using a 150×2.1 mm Agent C8 reverse-phase column on a Shimadzu Prominence LC, eluting the compounds with a gradient of 2% to 50% of acetonitrile+0.1% formic acid for all compounds. The concentration of the compound in the column effluent was measured using an Applied Biosystems API-3200 triple quadrupole mass spectrometer equipped with an electrospray sample injection system. The counts of the characteristic parent and product ions of each test compound were converted to concentration units by comparison with a standard curve.

[4] = in vitro; type: in vitro ADME; details: PAMPA, pH 7.4, 400 μM, pH 7.4, 24 hours, room temperature; read-out: PAMPA Permeability Coefficient (×10^6)
Protocol: PAMPA is a useful in vitro model for predicting the passive diffusion of drugs across the blood-brain barrier (Li, D et al Eur jour of Med Chem 38 (2003) 223-232).
Compounds were diluted in a 100 mM phosphate buffer (pH 7.4) to a concentration of 400 μM and the stock solutions were placed into a 96-well filter plate (Millipore, #MAIPN4510) pre-wetted with 20 mg/mL porcine brain polar lipid extract in 100% dodecane (Avanti, #131022) and placed into a 96-well acceptor plate (Millipore, #MSSACCEPTOR) whose wells were filled with the same phosphate buffer as in the filter plate. This assembly was incubated at room temperature for 24 hours. The experiment was halted by separating the filter plate from the acceptor plate. Aliquots were removed from the filter plate wells, acceptor plate wells, and stock solutions, and 1% trifluoroacetic acid was added to each. All solutions were measured by LC/UV, and passive diffusion rates were calculated using the peak area values (Avdeef, Alex. 2003. Page 147 in Absorption and Drug Development. Hoboken, N.J.: John Wiley & Sons).

[5] = biological target: T1, human muscarinic M3 receptors (Homo sapiens, UniProt P20309); type: cell-based; details: for huM3/A9L Smax: percentage of maximal stimulation by carbachol; for huM3/A9L Potency relative to carbachol: relative to the potency of carbachol at its EC50
T1 construct: host or cells: A9L cells
T1 sequence (P20309 whole entry): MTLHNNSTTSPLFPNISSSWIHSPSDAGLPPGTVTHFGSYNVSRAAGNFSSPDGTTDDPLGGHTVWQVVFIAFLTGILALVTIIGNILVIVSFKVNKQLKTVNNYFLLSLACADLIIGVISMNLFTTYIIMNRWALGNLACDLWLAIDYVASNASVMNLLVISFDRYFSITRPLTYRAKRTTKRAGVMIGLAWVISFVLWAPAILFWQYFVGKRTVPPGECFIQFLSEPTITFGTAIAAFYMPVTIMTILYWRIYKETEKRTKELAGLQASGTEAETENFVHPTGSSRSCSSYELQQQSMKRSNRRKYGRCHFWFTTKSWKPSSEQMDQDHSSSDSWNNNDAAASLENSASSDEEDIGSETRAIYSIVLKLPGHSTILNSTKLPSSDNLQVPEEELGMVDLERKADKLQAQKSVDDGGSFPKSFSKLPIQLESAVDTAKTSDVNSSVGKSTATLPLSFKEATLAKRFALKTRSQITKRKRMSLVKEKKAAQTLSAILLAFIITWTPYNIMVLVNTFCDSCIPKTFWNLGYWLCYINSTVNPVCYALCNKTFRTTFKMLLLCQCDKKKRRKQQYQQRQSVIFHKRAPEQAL

[6] = biological target: T2, human muscarinic M1 receptors (Homo sapiens, UniProt P11229); type: cell-based; details: for huM1/A9L Smax: percentage of maximal stimulation by carbachol; for huM1/A9L Potency relative to carbachol: relative to the potency of carbachol at its EC50
T2 construct: host or cells: A9L cells
T2 sequence (P11229 1-460): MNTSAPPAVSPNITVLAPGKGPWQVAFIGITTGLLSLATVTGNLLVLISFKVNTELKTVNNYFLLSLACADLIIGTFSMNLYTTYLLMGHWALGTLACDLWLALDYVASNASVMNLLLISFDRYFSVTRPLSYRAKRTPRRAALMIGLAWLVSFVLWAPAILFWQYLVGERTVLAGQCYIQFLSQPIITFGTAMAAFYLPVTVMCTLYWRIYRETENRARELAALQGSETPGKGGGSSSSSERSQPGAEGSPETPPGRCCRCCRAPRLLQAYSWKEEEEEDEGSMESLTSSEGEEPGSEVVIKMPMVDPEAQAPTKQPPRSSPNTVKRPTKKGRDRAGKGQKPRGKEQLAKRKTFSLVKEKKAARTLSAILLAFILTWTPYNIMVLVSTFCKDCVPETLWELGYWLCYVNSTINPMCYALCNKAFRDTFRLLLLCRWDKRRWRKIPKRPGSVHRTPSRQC

[7] = Blood and brain concentrations (rats), tail vein injection; type: in vivo, Long-Evans Hooded rats; details: male, Long-Evans Hooded, rat, plasma, iv, 3 mg/kg, 3 mg/kg tail vein injection, read-out: Plasma Terminal Half-life (converted)
[8] = test system: muscarinic M1 receptors in the hippocampus; assay: In vivo inositol phosphate increase in hippocampus, Example 44; set-up: species or system Long Evans Hooded rats; details: rat, 3 mg/kg sc
Protocol: (§1) In lithium chloride-treated laboratory rodents, engagement of muscarinic M1 receptors in the hippocampus may usefully be evaluated in vivo by measuring the increase in the tissue of inositol phosphate (Bymaster F P et al Brain Res 795 (1998) 179-190). This may also be extended to measure engagement of muscaric M3 receptors in the salivary glands.
(§2) Experimental compounds were administered subcutaneously at 3 mg/kg using standard techniques to Long Evans Hooded rats weighing 225 to 350 g, and which had been pretreated with a subcutaneous injection of lithium chloride at a suitable dose between 3 and 5 mmole/kg. At suitable times the animals were briefly anesthetized using 5% isoflurane and euthanized by decapitation. The brains and submaxillary salivary glands were rapidly dissected out, and the hippocampuses were dissected from the brains. The dissected tissues were homogenized in a suitable volume of ice-cold phosphate-buffered saline containing 10 mM lithium chloride (pH=7.4) using a tissue homogenizer, and used immediately or frozen in aliquots at −80° C. for future use. The concentration of inositol-1-phosphate was determined in the homogenates using the […] IP-One Terbium TR-FRET assay kit (Cisbio Bioassays, cat. #62IPAPEJ) according to the manufacturer's instructions.

[9] = test system: muscarinic M3 receptors in the salivary glands; assay: In vivo inositol phosphate increase in salivary glands, Example 44; set-up: species or system Long Evans Hooded rats; details: rat, 3 mg/kg sc
Protocol: as §1, §2

[10] = read-out: Brain Concentration at 1 hr
[11] = read-out: Plasma Concentration at 1 hr

## CN1CCc2cccc3c2[C@H]1Cc1ccc(O)c(O)c1-3 [APO, reference compound]
[1]
  Climbing Mean: 51.7 s

## [2H]C1([2H])NC[C@]2(c3nc(C)no3)C[C@H]12 [Compound 122b, 5-((1S,5S)-4,4-d2-3-azabicyclo[3.1.0]hexan-1-yl)-3-methyl-1,2,4-oxadiazole]
[2]
  Loss at 6 hrs (%): 13%
[3]
  Kp at 1 h: 0.58
[3]; [10]
  concentration at 1 h: 5.1 µM
[3]; [11]
  concentration at 1 h: 8.8 µM
[4]
  Papp at 24 h, 400 µM: 3.7 ×10⁻⁶ cm/s
[5]
  huM3/A9L Smax: 28%
  huM3/A9L Potency relative to carbachol: 0.50
[6]
  huM1/A9L Smax: 47%
  huM1/A9L Potency relative to carbachol: 0.54
[7]
  half-life: 78 min
[8]; 3 mmole/kg LiCl
  Increase in Inositol Phosphate in Hippocampus/Control: 150%
[9]; 3 mmole/kg LiCl
  Increase in Inositol Phosphate in Salivary Gland/Control: 163%

## Cc1noc([C@]23CNC[C@H]2C3)n1 [Compound 106b, 5-((1S,5S)-3-Azabicyclo[3.1.0]hexan-1-yl)-3-methyl-1,2,4-oxadiazole]
[2]
  Loss at 6 hrs (%): 29%
[3]
  Kp at 1 h: 0.6
[3]; [10]
  concentration at 1 h: 5.5 µM
[3]; [11]
  concentration at 1 h: 9.5 µM
[4]
  Papp at 24 h, 400 µM: 4.37 ×10⁻⁶ cm/s
[5]
  huM3/A9L Smax: 42%
  huM3/A9L Potency relative to carbachol: 0.27
[6]
  huM1/A9L Smax: 40%
  huM1/A9L Potency relative to carbachol: 0.51
[7]
  half-life: 66 min
[8]; 5 mmole/kg LiCl
  Increase in Inositol Phosphate in Hippocampus/Control: 141%
[9]; 5 mmole/kg LiCl
  Increase in Inositol Phosphate in Salivary Gland/Control: 104%

## [2H]C1([2H])NC([2H])([2H])C2(c3nc(C)no3)CC12 (stereo not shown) [Compound 134, 5-(2,2,4,4-d4-3-Azabicyclo[3.1.0]hexan-1-yl)-3-methyl-1,2,4-oxadiazole]
[2]
  Loss at 6 hrs (%): 10%
[3]
  Kp at 1 h: 0.65
[3]; [10]
  concentration at 1 h: 8.4 µM
[3]; [11]
  concentration at 1 h: 13.5 µM
[4]
  Papp at 24 h, 400 µM: 3.46 ×10⁻⁶ cm/s
[5]
  huM3/A9L Smax: 41%
  huM3/A9L Potency relative to carbachol: 0.35
[6]
  huM1/A9L Smax: 61%
  huM1/A9L Potency relative to carbachol: 1.17
[7]
  half-life: 84 min
[8]; 5 mmole/kg LiCl
  Increase in Inositol Phosphate in Hippocampus/Control: 574%
[9]; 5 mmole/kg LiCl
  Increase in Inositol Phosphate in Salivary Gland/Control: 214%

## [2H]C1([2H])NC[C@@]2(c3nc(C)no3)C[C@@H]12 [Compound 122a, 5-((1R,5R)-4,4-d2-3-azabicyclo[3.1.0]hexan-1-yl)-3-methyl-1,2,4-oxadiazole]
[2]
  Loss at 6 hrs (%): 20%
[3]
  Kp at 1 h: 0.59
[3]; [10]
  concentration at 1 h: 5 µM
[3]; [11]
  concentration at 1 h: 12.2 µM
[4]
  Papp at 24 h, 400 µM: 3.93 ×10⁻⁶ cm/s
[5]
  huM3/A9L Smax: 44%
  huM3/A9L Potency relative to carbachol: 0.38
[6]
  huM1/A9L Smax: 77%
  huM1/A9L Potency relative to carbachol: 1.09
[7]
  half-life: 58.2 min
[8]; 3 mmole/kg LiCl
  Increase in Inositol Phosphate in Hippocampus/Control: 487%
[9]; 3 mmole/kg LiCl
  Increase in Inositol Phosphate in Salivary Gland/Control: 182%
